Laboratory results as given in patent EP0623343A1, “Ketamine analogues for the treatment of thrombocytopenia” (GENENTECH, INC., priority 1993, dated 1994).
Like-named read-outs stand apart in the source and are kept apart here.

Tests used:
DAMI cells = experiment: DAMI assay measuring endomitotic activity (polyploidization) of DAMI cells; conditions: for DAMI: Thrombopoietic activity, concentration at which active
CMK cells = experiment: CMK assay for thrombopoietin (TPO) induction of platelet antigen GPIIbIIIa expression; conditions: for CMK: Thrombopoietic activity, concentration at which active; for minimal effective concentration: Homo sapiens, CMK
[1] = Thrombopoeitic activity in various assays (not specified further); conditions: for thrombopoeitic activity in various assays: no activity at concentrations as high as 200 µM
C57BL6 mice = experiment: Thrombopoietin (TPO) in vivo assay (Mouse Platelet Rebound Assay); conditions: @ 2 mg/mouse/d; IP injections on days 5 and 6 after anti-platelet serum
Experimental: Thrombopoietin (TPO) in vivo assay (Mouse Platelet Rebound Assay)
In vivo Assay for ³⁵S Determination of Platelet Production
C57BL6 mice (obtained from Charles River) were injected intraperitoneally (IP) with 1 ml goat anti-mouse platelet serum (6 amps) on day 1 to produce thrombocytopenia. On days 5 and 6, mice were given two IP injections of the factor or PBS as the control. On day 7, thirty µCi of Na₂³⁵SO₄ in 0.1 ml saline were injected intravenously and the percent ³⁵S incorporation of the injected dose into circulating platelets was measured in blood samples obtained from treated and control mice. Platelet counts and leukocyte counts were made at the same time from blood obtained from the retro-orbital sinus.

[2] = after 1-2 weeks treatment; patient had 37,000-58,000/µl before; cited from earlier work
[3] = read-out: active at concentration in the DAMI assay
[4] = read-out: active at concentration in the CMK assay
[5] = read-out: DAMI(µM), Thrombopoietic activity, concentration at which active, 'inactive @200' given as >200
[6] = read-out: CMK(µM), Thrombopoietic activity, concentration at which active, 'inactive @200' given as >200
[7] = read-out: active / inactive at concentration in the DAMI assay

| SMILES | minimal effective concentration (CMK cells; [4]) | minimal effective concentration (DAMI cells; [5]) | minimal effective concentration (CMK cells; [6]) | other results |
| --- | --- | --- | --- | --- |
| NC1(c2ccccc2Cl)CCC=CC1=O (single isomer, unassigned; (+)) [(+)-V, (+)-6-amino-6-(2-chlorophenyl)-2-cyclohexen-1-one] |  |  |  | DAMI (DAMI cells; 'inactive @200' given as >200): 12 µM; active at concentration in the CMK assay (CMK cells): 6 µm; CMK (CMK cells; 'inactive @200' given as >200): 6 µM |
| NC1(c2ccccc2Cl)CCC=CC1=O (single isomer, unassigned; (-)) [(-)-V, (-)-6-amino-6-(2-chlorophenyl)-2-cyclohexen-1-one] | 6 µM |  |  | DAMI (DAMI cells; 'inactive @200' given as >200): 12 µM; minimal effective concentration (DAMI cells; [3]): 6 µM; CMK (CMK cells; 'inactive @200' given as >200): 6 µM |
| O=C1C=CC(=O)c2ccccc21 [1,4-naphthoquinone, reference compound] |  | > 200 µM | < 6 µM |  |
| NCC(=O)NC1(c2ccccc2Cl)CCC=CC1=O (stereo not shown) [EXAMPLE IV, 6-(2-aminoacetyl)amino-6-(2-chlorophenyl)-2-cyclohexen-1-one] | 6 µM |  |  | minimal effective concentration (DAMI cells; [3]): 6 µM |
| CSCCC(=O)NC1(c2ccccc2Cl)CCC=CC1=O (stereo not shown) [EXAMPLE V, 6-(2-chlorophenyl)-6-(3-(methylthio)propanoyl)amino-2-cyclohexen-1-one] | 6 µM |  |  |  |
| NC1(c2ccccc2Cl)CCCCC1=O (stereo not shown) [IV, 2-(amino)-2-(2-chlorophenyl) cyclohexanone, reference compound] |  | > 200 µM | > 200 µM | thrombopoeitic activity in various assays [1]: > 200 µM |
| NC1(c2ccccc2Cl)CCC=CC1=O (stereo not shown) [V, 6-amino-6-(2-chlorophenyl)-2-cyclohexen-1-one] | 15 µM |  | 6 µM | In vivo(% ctl.@ mg/mouse/d) (C57BL6 mice): 131 @ 2 % ctl.; DAMI (DAMI cells; 'inactive @200' given as >200): 25 µM; minimal effective concentration (DAMI cells; [7]): 30 µM |
| CC(=O)NC1(c2ccccc2Cl)CCC=CC1=O (stereo not shown) [VI, 6-acetylamino-6-(2-chlorophenyl)-2-cyclohexen-1-one] |  | 12 µM | 6 µM | thrombopoeitic activity compared with 5,6-dehydronorketamine ([1]; N-acylated derivative): even more active |
| O=C(CCCC[C@@H]1SC[C@@H]2NC(=O)N[C@@H]21)NC1(c2ccccc2Cl)CCC=CC1=O (stereo partly shown) [VII, 6-biotinoylamino-6-(2-chlorophenyl)-2-cyclohexen-1-one] |  | 25 µM | 12 µM |  |
| Cc1nnc2n1-c1sc(CCC(=O)N3CCOCC3)cc1C(c1ccccc1Cl)=NC2 [WEB 2086, 4-(2-chlorphenyl)-9-methyl-2-[3-(4-morpholinyl)-3-propanon-1-yl]6H-thieno[3,2,f][1,2,4]triazolo[4,3,a,][1,4] diazepin, reference compound] |  | > 200 µM | > 200 µM | platelet counts [2]: 140,000-190,000 /µl; minimal effective concentration (DAMI cells; [7]): > 200 µM |
| O=C1C=CCCC1 [cyclohexenone, reference compound] |  | 200 µM | 200 µM |  |
| CNC1(c2ccccc2Cl)CCCCC1=O (stereo not shown) [ketamine (III), 2-(2-chlorophenyl)-2-(methylamino) cyclohexanone, reference compound] |  | > 200 µM | > 200 µM | thrombopoeitic activity in various assays [1]: > 200 µM |
